Measured values: ChEMBL document CHEMBL1149036, “Swertifrancheside, an HIV-reverse transcriptase inhibitor and the first flavone-xanthone dimer, from Swertia franchetiana” (J Nat Prod, 1994)
Values after ≈ are worked out from the molar mass of the structure shown.

Legend:
[1] = biological target: Human immunodeficiency virus type 1 reverse transcriptase (Human immunodeficiency virus 1) (UniProt Q72547); assay: Inhibition of HIV1 reverse transcriptase
[2] = biological target: Human immunodeficiency virus type 1 reverse transcriptase (Human immunodeficiency virus 1) (UniProt Q72547); assay: Inhibition of HIV1 reverse transcriptase at 200 ug/mL

Question: How did the ED50 [1] turn out when `COc1cc(O)c2c(=O)c3c(O)c(-c4c(O)c([C@@H]5O[C@H](CO)[C@@H](O)[C@H](O)[C@H]5O)c(O)c5c(=O)c6cc(O)c(O)cc6oc45)cc(O)c3oc2c1` was run?
Answer: 3 µg/mL (≈ 4.32 µM)

Question: What does the source list for `COc1cc(O)c2c(=O)c3c(O)c(-c4c(O)c([C@@H]5O[C@H](CO)[C@@H](O)[C@H](O)[C@H]5O)c(O)c5c(=O)cc(-c6ccc(O)c(O)c6)oc45)cc(O)c3oc2c1`?
Answer: inhibition [2]: 99.8%; ED50 [1]: 30.9 µg/mL (≈ 42.9 µM)
